Results as given in patent US8829026B2, “Sulfamoyl benzoic acid heterobicyclic derivatives as TRPM8 antagonists” (RaQualia Pharma Inc., priority 2010, dated 2014).

Target: T1, human TRPM8 (Homo sapiens, UniProt Q7Z2W7)
T1 construct: expressed in transfected cells
Experiment: Menthol-induced Ca2+ influx in HEK293 cells stably expressing human TRPM8
Type: cell-based
Conditions: 30 microM menthol-induced Ca2+ influx, HEK293 cells stably expressing human TRPM8, 11-point dose-response
Experimental: Measurement of the Menthol-Induced Ca^2+ Influx in HEK293 Cells Stably Expressing Human TRPM8
A cell-based Ca^2+ influx assay using HEK293 cells stably expressing human TRPM8 was used to identify the activity of compounds.
HEK293 cells stably expressing human TRPM8 were grown in T175 flasks at 37° C. in a 5% CO2 humidified incubator to about 80% confluence. Media composition consisted of Dulbecco's Modified Eagle Medium (high glucose), 10% fetal calf serum (FCS), 100 units/ml Penicillin, 100 microg/ml Streptomycin and 600 microg/ml Geneticine. At 24 hours prior to assay, cells were seeded in poly-D-lysine coated 384-well plates (BD FALCON) at a density of 30,000 cells per well in culture medium and grown overnight in 5% CO2 at 37° C. On the assay day, growth media was removed and cells were loaded with 0.5 microM Fluo4-AM (Molecular Probes) and 0.005% Pluronic F-127 dissolved in assay buffer (Hank's balanced salt solution (HBSS), 19.4 mM HEPES pH7.4, 2.5 mM Probenecid) for 1 hour at room temperature. After washing with assay buffer, the cells were preincubated with various concentrations of the compounds for 5 min. The changes in intracellular calcium concentration by addition of 30 microM menthol were monitored by the cell imaging technology by Hamamatsu Photonics's Functional Drug Screening System (FDSS).
The IC50 values for compounds of the present invention were determined from 11-point dose-response studies. Curves were generated using the average of duplicate wells for each data point. Finally, the IC50 values are calculated with the best-fit dose curve determined by XLfit (ID Business Solutions Ltd.).

T1 sequence (Q7Z2W7 whole entry): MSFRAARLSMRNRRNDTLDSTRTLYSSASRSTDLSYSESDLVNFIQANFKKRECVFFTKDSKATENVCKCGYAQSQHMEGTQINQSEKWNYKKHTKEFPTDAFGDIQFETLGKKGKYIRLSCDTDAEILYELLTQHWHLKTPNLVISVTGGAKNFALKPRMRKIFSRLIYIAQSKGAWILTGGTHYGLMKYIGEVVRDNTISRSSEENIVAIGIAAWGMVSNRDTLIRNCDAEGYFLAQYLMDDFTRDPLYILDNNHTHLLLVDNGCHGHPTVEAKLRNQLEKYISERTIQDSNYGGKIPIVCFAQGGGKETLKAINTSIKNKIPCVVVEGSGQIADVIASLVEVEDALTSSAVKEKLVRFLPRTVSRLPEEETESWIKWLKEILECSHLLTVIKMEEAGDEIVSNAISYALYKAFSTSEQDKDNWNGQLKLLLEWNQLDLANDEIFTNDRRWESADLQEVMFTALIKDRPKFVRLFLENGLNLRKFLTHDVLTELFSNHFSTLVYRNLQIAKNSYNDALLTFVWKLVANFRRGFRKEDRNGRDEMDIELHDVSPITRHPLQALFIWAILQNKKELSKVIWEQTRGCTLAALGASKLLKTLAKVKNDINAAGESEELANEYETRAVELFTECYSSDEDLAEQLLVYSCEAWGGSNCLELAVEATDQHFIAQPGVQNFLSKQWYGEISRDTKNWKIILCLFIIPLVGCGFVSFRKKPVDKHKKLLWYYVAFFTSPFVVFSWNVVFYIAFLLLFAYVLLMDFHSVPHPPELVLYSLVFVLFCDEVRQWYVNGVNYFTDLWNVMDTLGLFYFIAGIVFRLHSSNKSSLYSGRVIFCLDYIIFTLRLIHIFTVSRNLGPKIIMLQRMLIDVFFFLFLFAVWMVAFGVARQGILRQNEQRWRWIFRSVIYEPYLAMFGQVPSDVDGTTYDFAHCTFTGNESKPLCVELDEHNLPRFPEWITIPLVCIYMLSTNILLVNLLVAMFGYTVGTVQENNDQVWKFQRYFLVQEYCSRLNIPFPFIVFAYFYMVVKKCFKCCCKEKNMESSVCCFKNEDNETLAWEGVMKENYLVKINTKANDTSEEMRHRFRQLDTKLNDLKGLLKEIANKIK

Compound | IC50 [nM]
O=C(O)c1ccc(S(=O)(=O)N(Cc2ccc3c(cnn3C3CC3)c2)c2ncc(C(F)(F)F)cc2Cl)cc1 [Example 28, 4-(N-(3-Chloro-5-(trifluoromethyl)pyridin-2-yl)-N-((1-cyclopropyl-1H-indazol-5-yl)methyl)sulfamoyl)benzoic acid] | < 1000
O=C(O)c1ccc(S(=O)(=O)N(Cc2ccc3c(cnn3C3CC3)c2)c2ncc(Cl)cc2Cl)cc1 [Example 29, 4-(N-((1-Cyclopropyl-1H-indazol-5-yl)methyl)-N-(3,5-dichloropyridin-2-yl)sulfamoyl)benzoic acid] | < 1000
Cn1nnc2cc(CN(c3ncc(C(F)(F)F)cc3Cl)S(=O)(=O)c3ccc(C(=O)O)cc3)ccc21 [Example 30, 4-(N-(3-Chloro-5-(trifluoromethyl)pyridin-2-yl)-N-((1-methyl-1H-benzo[d][1,2,3]triazol-5-yl)methyl)sulfamoyl)benzoic acid] | 1000 to 10000
O=C(O)c1ccc(S(=O)(=O)N(Cc2ccc3c(cnn3C3CC3)c2)c2ncc(C(F)(F)F)cc2Cl)c(Cl)c1 [Example 31, 3-Chloro-4-(N-(3-chloro-5-(trifluoromethyl)pyridin-2-yl)-N-((1-cyclopropyl-1H-indazol-5-yl)methyl)sulfamoyl)benzoic acid] | < 1000
O=C(O)c1ccc(S(=O)(=O)N(Cc2ccc3c(cnn3C3CC3)c2)c2ncc(Cl)cc2Cl)c(Cl)c1 [Example 32, 3-Chloro-4-(N-((1-cyclopropyl-1H-indazol-5-yl)methyl)-N-(3,5-dichloropyridin-2-yl)sulfamoyl)benzoic acid] | < 1000
Cc1cc(C(=O)O)ccc1S(=O)(=O)N(Cc1ccc2c(cnn2C2CC2)c1)c1ncc(C(F)(F)F)cc1Cl [Example 33, 4-(N-(3-Chloro-5-(trifluoromethyl)pyridin-2-yl)-N-((1-cyclopropyl-1H-indazol-5-yl)methyl)sulfamoyl)-3-methylbenzoic acid] | < 1000
Cc1cc(C(=O)O)ccc1S(=O)(=O)N(Cc1ccc2c(cnn2C2CC2)c1)c1ncc(Cl)cc1Cl [Example 34, 4-(N-((1-Cyclopropyl-1H-indazol-5-yl)methyl)-N-(3,5-dichloropyridin-2-yl)sulfamoyl)-3-methylbenzoic acid] | < 1000
Cn1ccc2cc(CN(c3ncc(C(F)(F)F)cc3Cl)S(=O)(=O)c3ccc(C(=O)O)cc3Cl)cnc21 [Example 35, 3-Chloro-4-(N-(3-chloro-5-(trifluoromethyl)pyridin-2-yl)-N-((1-methyl-1H-pyrrolo[2,3-b]pyridin-5-yl)methyl)sulfamoyl)benzoic acid] | < 1000

The next lines start with the values.

IC50 [nM] | Compound
1000 to 10000 | Cn1ccc2cc(CN(c3ncc(Cl)cc3Cl)S(=O)(=O)c3ccc(C(=O)O)cc3Cl)cnc21 [Example 36, 3-Chloro-4-(N-(3,5-dichloropyridin-2-yl)-N-((1-methyl-1H-pyrrolo[2,3-b]pyridin-5-yl)methyl)sulfamoyl)benzoic acid]
< 1000 | Cn1ccc2cc(CN(c3ncc(C(F)(F)F)cc3Cl)S(=O)(=O)c3ccc(C(=O)O)cc3)cnc21 [Example 37, 4-(N-(3-Chloro-5-(trifluoromethyl)pyridin-2-yl)-N-((1-methyl-1H-pyrrolo[2,3-b]pyridin-5-yl)methyl)sulfamoyl)benzoic acid]
< 1000 | O=C(O)c1ccc(S(=O)(=O)N(Cc2cnc3ccccc3c2)c2ncc(C(F)(F)F)cc2Cl)cc1 [Example 38, 4-(N-(3-Chloro-5-(trifluoromethyl)pyridin-2-yl)-N-(quinolin-3-ylmethyl)sulfamoyl)benzoic acid]
< 1000 | O=C(O)c1ccc(S(=O)(=O)N(Cc2ccc3ncccc3c2)c2ncc(C(F)(F)F)cc2Cl)cc1 [Example 39, 4-(N-(3-Chloro-5-(trifluoromethyl)pyridin-2-yl)-N-(quinolin-6-ylmethyl)sulfamoyl)benzoic acid]
